Results: patent publication US20250171457A1, “NITROGEN-CONTAINING HETEROCYCLIC COMPOUND HAVING NRF2 ACTIVATION EFFECT” (CHUGAI SEIYAKU KABUSHIKI KAISHA, priority 2022, published 2025)

Tested on: Nrf2 transcriptional activity (pARE-Luc reporter) in HepG2 cells
Assay: In vitro Nrf2 transcriptional activity measurement by ARE-dependent reporter assay in HepG2 cell
Format: cell-based, human
Details: Homo sapiens; HepG2 cells transfected with pARE-Luc, 4 hours at 37° C.; luciferase activity of Example 1-54 or Example 17-23 at 3.75 μM defined as 100%
Protocol: Test Example 1: In Vitro Nrf2 Transcriptional Activity Measurement by ARE-Dependent Reporter Assay in HepG2 Cell
A human liver cancer-derived cell line HepG2 was transfected with pGL4.37 vector (pARE-Luc, Promega Corp.) and incubated overnight at 37° C. in a humidified atmosphere containing 5% CO2. The cells were dissociated by trypsin treatment, inoculated to a 384-well plate supplemented with a test compound, and incubated at 37° C. for 4 hours. Then, Bright-Glo Reagent (Promega Corp.) was added to the plate, and luciferase activity was measured with Envision plate reader.
Luciferase activity obtained through the action of the compound of Example 1-54 or Example 17-23 at a concentration of 3.75 μM was defined as 100%. The luciferase activity of each well was converted to a response rate (%). The dose-response curve of the compound of each Example was prepared to calculate a 50% effective concentration (EC50).

SMILES	EC50
C[C@@H]1[C@@H](N2CCOCC2)CN1c1cc(Cl)c(C(=O)N2COc3c(cccc3-c3cc(N4C5CCC4COC5)c(C(=O)O)cc3F)C2)c(Cl)c1 [Compound 1-84, 4-[3-[2,6-Dichloro-4-[(2R,3S)-2-methyl-3-morpholin-4-ylazetidin-1-yl]benzoyl]-2,4-dihydro-1,3-benzoxazin-8-yl]-5-fluoro-2-(3-oxa-8-azabicyclo[3.2.1]octan-8-yl)benzoic acid]	2.4 nM
C[C@@H]1CN(c2cc(Cl)c(C(=O)N3COc4c(cccc4-c4cc(N5C6CCC5COC6)c(C(=O)O)cc4F)C3)c(Cl)c2)[C@@H](C)CN1C [Compound 9-6, 4-[3-[2,6-Dichloro-4-[(2S,5R)-2,4,5-trimethylpiperazin-1-yl]benzoyl]-2,4-dihydro-1,3-benzoxazin-8-yl]-5-fluoro-2-(3-oxa-8-azabicyclo[3.2.1]octan-8-yl)benzoic acid]	5.7 nM
Cn1ccc2c(C(=O)N3COc4c(cccc4-c4cc(N5CCOCC5)c(C(=O)O)cc4F)C3)c(Cl)cnc21 [Compound 13-13, 4-[3-(5-Chloro-1-methylpyrrolo[2,3-b]pyridine-4-carbonyl)-2,4-dihydro-1,3-benzoxazin-8-yl]-5-fluoro-2-morpholin-4-ylbenzoic acid]	7.1 nM
CN1CCN(c2cc(Cl)c(C(=O)N3COc4c(cccc4-c4cc(N5C6CCC5COC6)c(C(=O)O)cc4F)C3)c(Cl)c2)C(C)(C)C1 [Compound 9-14, 4-[3-[2,6-Dichloro-4-(2,2,4-trimethylpiperazin-1-yl)benzoyl]-2,4-dihydro-1,3-benzoxazin-8-yl]-5-fluoro-2-(3-oxa-8-azabicyclo[3.2.1]octan-8-yl)benzoic acid]	11 nM
CC(C)(O)CN1CCN(c2cc(Cl)c(C(=O)N3COc4c(cccc4-c4cc(N5CCOCC5)c(C(=O)O)cc4F)C3)c(Cl)c2)CC1 [Compound 1-57, 4-[3-[2,6-Dichloro-4-[4-(2-hydroxy-2-methylpropyl)piperazin-1-yl]benzoyl]-2,4-dihydro-1,3-benzoxazin-8-yl]-5-fluoro-2-morpholin-4-ylbenzoic acid]	1.4 nM
O=C(O)c1cc(F)c(-c2cccc3c2OCN(C(=O)c2c(Cl)cc(N4CC5(CCC5)C4)cc2Cl)C3)cc1N1C2CCC1COC2 [Compound 4-7, 4-[3-[4-(2-Azaspiro[3.3]heptan-2-yl)-2,6-dichlorobenzoyl]-2,4-dihydro-1,3-benzoxazin-8-yl]-5-fluoro-2-(3-oxa-8-azabicyclo[3.2.1]octan-8-yl)benzoic acid]	3.3 nM
COCCN1CCN(c2cc(Cl)c(C(=O)N3COc4c(cccc4-c4cc(N5CCOCC5C#N)c(C(=O)O)cc4F)C3)c(Cl)c2)CC1 (racemic) [Compound 20-10, rac-2-(3-Cyanomorpholin-4-yl)-4-[3-[2,6-dichloro-4-[4-(2-methoxyethyl)piperazin-1-yl]benzoyl]-2,4-dihydro-1,3-benzoxazin-8-yl]-5-fluorobenzoic acid]	25 nM
CN1CCN(c2cc(Cl)c(C(=O)N3COc4c(cccc4-c4cc(N5C6CCC5COC6)c(C(=O)O)cc4F)C3)c(Cl)c2)CC1(C)C [Compound 10-6, 4-[3-[2,6-Dichloro-4-(3,3,4-trimethylpiperazin-1-yl)benzoyl]-2,4-dihydro-1,3-benzoxazin-8-yl]-5-fluoro-2-(3-oxa-8-azabicyclo[3.2.1]octan-8-yl)benzoic acid]	9.1 nM
CC(C)N1CCN(c2cc(Cl)c(C(=O)N3COc4c(cccc4-c4ccc(C(=O)O)c(N5CCOCC5)c4)C3)c(Cl)c2)CC1 [Compound 1-67, 4-[3-[2,6-Dichloro-4-(4-propan-2-ylpiperazin-1-yl)benzoyl]-2,4-dihydro-1,3-benzoxazin-8-yl]-2-morpholin-4-ylbenzoic acid]	4.4 nM
O=C(O)c1cc(F)c(-c2cccc3c2OCN(C(=O)c2c(Cl)cc(N4CC5(C4)CC(F)(F)C5)cc2Cl)C3)cc1N1C2CCC1COC2 [Compound 16-7, 4-[3-[2,6-Dichloro-4-(6,6-difluoro-2-azaspiro[3.3]heptan-2-yl)benzoyl]-2,4-dihydro-1,3-benzoxazin-8-yl]-5-fluoro-2-(3-oxa-8-azabicyclo[3.2.1]octan-8-yl)benzoic acid]	1.4 nM
Cn1ncc2c(-c3cc(Cl)c(C(=O)N4COc5c(cccc5-c5cc(N6C7CCC6COC7)c(C(=O)O)cc5F)C4)c(Cl)c3)cccc21 [Compound 3-7, 4-[3-[2,6-Dichloro-4-(1-methylindazol-4-yl)benzoyl]-2,4-dihydro-1,3-benzoxazin-8-yl]-5-fluoro-2-(3-oxa-8-azabicyclo[3.2.1]octan-8-yl)benzoic acid]	9.6 nM
CN1CC2CN(c3cc(Cl)c(C(=O)N4COc5c(cccc5-c5cc(N6CCOCC6)c(C(=O)O)cc5F)C4)c(Cl)c3)CC2C1 (stereo not drawn) [Compound 1-48, 4-[3-[2,6-Dichloro-4-(2-methyl-1,3,3a,4,6,6a-hexahydropyrrolo[3,4-c]pyrrol-5-yl)benzoyl]-2,4-dihydro-1,3-benzoxazin-8-yl]-5-fluoro-2-morpholin-4-ylbenzoic acid]	2.3 nM
O=C(O)c1cc(F)c(-c2cccc3c2OCN(C(=O)c2c(Cl)cc(-c4cncc5ccoc45)cc2Cl)C3)cc1N1C2CCC1COC2 [Compound 3-25, 4-[3-(2,6-Dichloro-4-furo[3,2-c]pyridin-7-ylbenzoyl)-2,4-dihydro-1,3-benzoxazin-8-yl]-5-fluoro-2-(3-oxa-8-azabicyclo[3.2.1]octan-8-yl)benzoic acid]	7.7 nM
COCCN1CCC(c2cc(Cl)c(C(=O)N3COc4c(cccc4-c4cc(N5CCOCC5)c(C(=O)O)cc4F)C3)c(Cl)c2)CC1 [Compound 16-11, 4-[3-[2,6-Dichloro-4-[1-(2-methoxyethyl)piperidin-4-yl]benzoyl]-2,4-dihydro-1,3-benzoxazin-8-yl]-5-fluoro-2-morpholin-4-ylbenzoic acid]	7.5 nM
C[C@@H]1CN(c2cc(F)c(C(=O)N3COc4c(cccc4-c4cc(N5C6CCC5COC6)c(C(=O)O)cc4F)C3)c(Cl)c2)[C@H](C)CN1C [Compound 19-3, 4-[3-[2-Chloro-6-fluoro-4-[(2R,5R)-2,4,5-trimethylpiperazin-1-yl]benzoyl]-2,4-dihydro-1,3-benzoxazin-8-yl]-5-fluoro-2-(3-oxa-8-azabicyclo[3.2.1]octan-8-yl)benzoic acid]	1.2 nM
O=C(O)c1ccc(-c2cccc3c2OCN(C(=O)c2c(Cl)cc(-c4ccncc4)cc2Cl)C3)cc1N1CCOCC1 [Compound 2-4, 4-[3-(2,6-Dichloro-4-pyridin-4-ylbenzoyl)-2,4-dihydro-1,3-benzoxazin-8-yl]-2-morpholin-4-ylbenzoic acid]	5.7 nM
C[C@@H]1CN(C2COC2)CCN1c1cc(Cl)c(C(=O)N2COc3c(cccc3-c3cc(N4C5CCC4COC5)c(C(=O)O)cc3F)C2)c(Cl)c1 [Compound 9-16, 4-[3-[2,6-Dichloro-4-[(2R)-2-methyl-4-(oxetan-3-yl)piperazin-1-yl]benzoyl]-2,4-dihydro-1,3-benzoxazin-8-yl]-5-fluoro-2-(3-oxa-8-azabicyclo[3.2.1]octan-8-yl)benzoic acid]	4.8 nM
O=C(O)c1cc(F)c(-c2cccc3c2OCN(C(=O)c2c(Cl)cc(N4CC5(CC(O)C5)C4)cc2Cl)C3)cc1N1C2CCC1COC2 [Compound 1-6, 4-[3-[2,6-Dichloro-4-(6-hydroxy-2-azaspiro[3.3]heptan-2-yl)benzoyl]-2,4-dihydro-1,3-benzoxazin-8-yl]-5-fluoro-2-(3-oxa-8-azabicyclo[3.2.1]octan-8-yl)benzoic acid]	9.6 nM
O=C(O)c1cc(F)c(-c2cccc3c2OCN(C(=O)c2c(Cl)ccc4cc(Cl)cnc24)C3)cc1N1CCOCC1 [Compound 13-14, 4-[3-(3,7-Dichloroquinoline-8-carbonyl)-2,4-dihydro-1,3-benzoxazin-8-yl]-5-fluoro-2-morpholin-4-ylbenzoic acid]	13 nM
Cn1cc(-c2cc(Cl)c(C(=O)N3COc4c(ccc(F)c4-c4cc(N5CCOCC5)c(C(=O)O)cc4F)C3)c(Cl)c2)cn1 [Compound 13-8, 4-[3-[2,6-Dichloro-4-(1-methylpyrazol-4-yl)benzoyl]-7-fluoro-2,4-dihydro-1,3-benzoxazin-8-yl]-5-fluoro-2-morpholin-4-ylbenzoic acid]	5.4 nM
C[C@@H]1CN(c2cc(Cl)c(C(=O)N3COc4c(cccc4-c4cc(N5C6CCC5COC6)c(C(=O)O)cc4F)C3)c(Cl)c2)CCO1 [Compound 4-18, 4-[3-[2,6-Dichloro-4-[(2R)-2-methylmorpholin-4-yl]benzoyl]-2,4-dihydro-1,3-benzoxazin-8-yl]-5-fluoro-2-(3-oxa-8-azabicyclo[3.2.1]octan-8-yl)benzoic acid]	3.6 nM
COC1CN(c2cc(Cl)c(C(=O)N3COc4c(cccc4-c4cc(N5C6CCC5COC6)c(C(=O)NS(C)(=O)=O)cc4F)C3)c(Cl)c2)C1 [Compound 16-6, 4-[3-[2,6-Dichloro-4-(3-methoxyazetidin-1-yl)benzoyl]-2,4-dihydro-1,3-benzoxazin-8-yl]-5-fluoro-N-methylsulfonyl-2-(3-oxa-8-azabicyclo[3.2.1]octan-8-yl)benzamide]	170 nM
COCCN1CCN(c2cc(Cl)c(C(=O)N3COc4c(ccc(F)c4-c4ccc(C(=O)O)c(N5CCOCC5)c4)C3)c(Cl)c2)CC1 [Compound 1-79, 4-[3-[2,6-Dichloro-4-[4-(2-methoxyethyl)piperazin-1-yl]benzoyl]-7-fluoro-2,4-dihydro-1,3-benzoxazin-8-yl]-2-morpholin-4-ylbenzoic acid]	3.6 nM
[2H]C1([2H])c2cccc(-c3ccc(C(=O)O)c(N4CCOCC4)c3)c2OCN1C(=O)c1c(Cl)cc(-c2cnn(C)c2)cc1Cl [Compound 14-7, 4-[4,4-Dideuterio-3-[2,6-dichloro-4-(1-methylpyrazol-4-yl)benzoyl]-2H-1,3-benzoxazin-8-yl]-2-morpholin-4-ylbenzoic acid]	2.5 nM
